Key:
Type in all cases: cell-based
[1] = test system: HCV genotype 1B (5-2) replicon cell line; assay: BelloCell in vitro PK-PD PK driver experiments; conditions: adjusted to free fraction, Day 3
Excerpt: A 4-tube HulaCell system was validated by comparing the results for the Compound PK driver experiments, previously performed in the BelloCell® (data not shown), with the results obtained from dose escalation and dose fractionation studies performed using the HulaCell system.
Calculated PK Driver parameters from HulaCell experiments, compared to those determined in BelloCell experiments are shown in Table 1.
The Hula Cell was successfully used to determine the Maximum efficacy threshold values at Day 3 for Compound in the HCV genotype 1B (5-2) replicon cell line. The PK correlation curves were remarkably similar between the BelloCell® and Hula cell with the only noticeable differences being the prediction of the % T>EC50 and the AUC.

[2] = test system: HCV genotype 1B (5-2) replicon cell line; assay: HulaCell in vitro PK-PD PK driver experiments (dose escalation and dose fractionation; luciferase reporter and RT-PCR viral RNA); conditions: adjusted to free fraction, Day 3
Experimental: Three QD infusions of the HCV NS3/4 protease inhibitor, (1aR,5S,8S,10R,22aR)-N-[(1R,2S)-1-[(Cyclopropylsulfonamido)carbonyl]-2-ethenylcyclopropyl]-14-methoxy-5-(2-methylpropan-2-yl)-3,6-dioxo-1,1a,3,4,5,6,9,10,18,19,20,21,22,22a-tetradecahydro-8H-7,10-methanocyclopropa[18,19][1,10,3,6]dioxadiazacyclononadecino[11,12-b]quinoxaline-8-carboxamide (“Compound”; See U.S. Pat. No. 7,973,040) were tested in the Hula Cell using the in vitro PK-PD software program and PK was monitored by collecting samples at multiple time point during each infusion. In addition, microcarrier beads were also collected daily to measure changes in viral load by RT-PCR Taqman analysis of cell lysates.
A frozen vial of HCV genotype 1B replicon cells (5-2 cells which contain genotype 1B replicon and a Luciferase reporter) was thawed and seeded into one T-75 flask. At confluency, the flask was trypsinized and cells resuspended to 6×10^6 cells in 9.5 ml DMEM containing 10% FBS and 0.5 mg/ml G418 in a 50 ml LeviTube™. 0.5 ml of collagen-coated microcarrier bead slurry mixture (50% V/V) was added to the 9.5 ml of cells and attachment was performed using BioWiggler™ microcarrier loading program (RPM=60; 1 min mixing; 40 min settle (repeat 6x=4 hr total)). Continuous mixing at 60 rpm was performed overnight. The next morning, 30 ml of fresh media was added to the culture. The microcarriers and attached cells were allowed to settle before removing 30 ml of media with any unattached cells from the LeviTube™. Afterward, 30 ml of fresh media was added back to the LeviTube™ to make the final volume 40 ml. […]
PK/PD samples were collected on Day 0, Day 1, Day 2, and Day 3 directly from the 50 ml LeviTube™ at specified time points. […] Compound concentration in the PK samples was determined by Mass Spectroscopy analysis.
Samples for PD determination (viral load content by RT-PCR) were washed once with 1 ml PBS (w/out Mg^2+ and Ca^2+). […] Viral RNA content of the cells was determined by quantitative PCR. […]

[3] = test system: HCV genotype 1B containing 5-2 cells; assay: plate-based RNA content assay; conditions: Hepatitis C virus; HCV genotype 1B 5-2 cells, plate-based RNA content assay (data not shown)
Experimental: The EC50 of Compound against HCV genotype 1B containing 5-2 cells was determined to be 0.7 nM in plate-based RNA content assays (data not shown). A dose escalation experiment in which HCV genotype 1B 5-2 cells were dosed QD over three days at 0.3×EC50, 1×EC50, 3×EC50 and 10×EC50 and a dose fractionation experiment in which cells were dosed QD, BID or TID to obtain a constant AUC of ˜16.8 nM were performed using the HulaCell system. Results of the reporter assays for the dose escalation experiment are shown in FIGS. 6A-B. The combined PK results of the dose escalation experiment area shown in FIG. 7.

## C=C[C@@H]1C[C@]1(NC(=O)[C@@H]1C[C@@H]2CN1C(=O)[C@H](C(C)(C)C)NC(=O)O[C@@H]1C[C@H]1CCCCCc1nc3ccc(OC)cc3nc1O2)C(=O)NS(=O)(=O)C1CC1 [Compound, (1aR,5S,8S,10R,22aR)-N-[(1R,2S)-1-[(Cyclopropylsulfonamido)carbonyl]-2-ethenylcyclopropyl]-14-methoxy-5-(2-methylpropan-2-yl)-3,6-dioxo-1,1a,3,4,5,6,9,10,18,19,20,21,22,22a-tetradecahydro-8H-7,10-methanocyclopropa[18,19][1,10,3,6]dioxadiazacyclononadecino[11,12-b]quinoxaline-8-carboxamide]
[1]
  Maximum Efficacy Threshold % T > EC50: ≥50%
  Maximum Efficacy Threshold AUC0-24: ≥8.4 nM·h
  Maximum Efficacy Threshold Cmin: ≥0.11 nM
[2]
  Maximum Efficacy Threshold % T > EC50: ≥84%
  Maximum Efficacy Threshold AUC0-24: ≥23.7 nM·h
  Maximum Efficacy Threshold Cmin: ≥0.10 nM
[3]
  EC50: 0.7 nM

Source: patent US20180291325A1, “IN VITRO PHARMACOKINETIC-PHARMACODYNAMIC DEVICE” (Merck Sharp & Dohme Corp., priority 2015, published 2018)
